Like-named read-outs stand apart in the source and are kept apart here. Marks after values point to notes of the source that are not given here.
Legend:
sycamore lace bug nymphs [1] = experiment: Petri dish test, behavioral response of nymphs; type: in vivo, Corythucha ciliata; settings: for Chi-square value, choice of nymphs: compound vs. hexane, 20 μl on filter paper, 5 min; for behavioral response of nymphs: petri dish
Description: One test was conducted in a petri dish (15 cm diameter) at 22–26°C. Two filter papers (3 cm diameter) were placed symmetrically on both sides of the petri dish. 20 μl of the compound to be tested (1, 0.1 or 0.01 μg/μl) was added to one filter paper. 20 μl hexane was added as a control to the other filter paper. The filter papers were placed at a distance of 5 cm from the start position at the center of the petri dish where 40 sycamore lace bug nymphs were released. The number of nymphs on each filter paper was recorded after 5 min. Each assay was replicated four times with a new petri dish for each replicate. The choice between hexane and a blank was also tested. […] The numbers of insect on each filter paper were compared using chi-square analysis.

CcilCSP2 = CcilCSP2 (Corythucha ciliata, UniProt A0A2S0M1B9); experiment: Fluorescence competitive binding assay with 1-NPN
Description: Briefly, the sequence of CcilCSP2 encoding the mature CSP protein was expressed in Escherichia coli BL21 (DE3) competent cells (Transgen). Cells were grown at 37°C until OD600 ≈ 0.60, when expression was induced with 1 mM IPTG. After incubating an additional 8 h at 28°C, cells were harvested by centrifugation. The purification of CcilCSP2 was performed using HisTrap affinity columns (GE Healthcare Biosciences, Uppsala, Sweden).

sycamore lace bug nymphs [2] = experiment: Plant leaf test, repellency rate of nymphs; type: in vivo, Corythucha ciliata; settings: for behavioral response of nymphs: plant leaves
Description: To further confirm the behavioral effects of each active substance, the behavioral response of sycamore lace bug nymphs was tested by directly applying the compounds to a P. × acerifolia leaf. […] Photographs were then taken at 0, 2, and 4 min to assess the repellency rate, which was calculated using the following formula: Repellency rate = M/T^*100, where T = the total number of sycamore lace bug nymphs in the tested colony at 0 min, and M = the number of sycamore lace bug nymphs that had moved at 2 or 4 min. Experimental conditions were the same as for the petri dish experiments. Hexane was used as the mock treatment. The repellency rates of the nymphs in each treatment were compared using a Kruskal Wallis H-test followed by Mann-Whitney U-tests.

sycamore lace bug adults = experiment: Y-shaped olfactometer, behavioral response of adults; type: in vivo, Corythucha ciliata; settings: Y-tube; for χ2, choice of adults: P > 0.05; for behavioral response of adults: 1 and 0.1 μg/μl
Description: Compounds that potentially bind with high affinity to CSPs were purchased from Sigma (St Louis, MO, USA) to test their effects on sycamore lace bug behavior. The behavioral response of sycamore lace bug adults (1:1 sex ratio) was assessed using a Y-shaped olfactometer. The length of the arms and the diameter of the tube were 10 and 5 cm, respectively. The authentic standards were dissolved in hexane at concentrations of 1 and 0.1 μg/μl. Then 10 μl of solution was applied to a 1 cm^2 filter paper. The filter paper was placed in one arm of the Y-shaped olfactometer, and 10 μl hexane was placed in the other arm as a control. The amount of airflow was set at 250 ml/min. In each experiment, a single sycamore lace bug adult was released at the base of the olfactometer stem and observed for 10 min. During this time, insects not making any choice were recorded as having “no response”. Insects entering more than halfway into the olfactometer arm and staying for at least 10 s were recorded as having a “response”. After 10 insects were tested, the orientation of the Y-shaped olfactometer was reversed to avoid environmental effects, and the inner wall was cleaned with degreased cotton containing acetone, washed with ethanol, and then washed with distilled water and dried in an oven. The experiment was conducted in a behavioral observation chamber at 26°C. The experiment was repeated seven times, and each time the behavior of 10 insects was tested. The choice of insects between chemicals and hexane was compared using chi-square analysis.

sycamore lace bug nymphs [3] = experiment: Petri dish test, behavioral response of nymphs; type: in vivo, Corythucha ciliata; settings: Geraniol vs. Phenyl benzoate
c18915_g1 = molecular target: T1, c18915_g1 (Corythucha ciliata, UniProt A0A2S0M1C0); experiment: direct fluorescence titration; type: binding; settings: fluorescent probe; conditions presumably as for CcilCSP2
T1 construct: gene CSP8; full length 133 aa
T1 sequence (A0A2S0M1C0 22-133): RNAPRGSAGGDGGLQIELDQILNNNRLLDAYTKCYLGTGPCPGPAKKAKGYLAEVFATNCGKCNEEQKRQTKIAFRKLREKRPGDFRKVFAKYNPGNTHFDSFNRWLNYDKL

CcilCSP2, sequence (A0A2S0M1B9 entry or part of it): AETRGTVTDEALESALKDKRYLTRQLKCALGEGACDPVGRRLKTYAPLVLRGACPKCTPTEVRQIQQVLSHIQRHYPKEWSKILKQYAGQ

Cc1ccc(C(C)C)cc1 [p-Cymene]
Chi-square value, choice of nymphs (sycamore lace bug nymphs [1]; 0.01 μg/μl): 0.083 | Chi-square value, choice of nymphs (sycamore lace bug nymphs [1]; 0.1 μg/μl): 0.026 | Chi-square value, choice of nymphs (sycamore lace bug nymphs [1]; 1 μg/μl): 0.048

c1ccc(Nc2cccc3ccccc23)cc1 [1-NPN, N-Phenyl-1-naphthylamine]
Kd (CcilCSP2): 2.08 µM

Cc1ccc(C(C)C)c(O)c1 [Thymol]
Chi-square value, choice of nymphs (sycamore lace bug nymphs [1]; 0.01 μg/μl): 0.400 | Chi-square value, choice of nymphs (sycamore lace bug nymphs [1]; 0.1 μg/μl): 0.111 | Chi-square value, choice of nymphs (sycamore lace bug nymphs [1]; 1 μg/μl): 0.125

CC(C)=CCC/C(C)=C/CO [Geraniol, E-3,7-dimethyl-2,6-octadien-1-ol, reference compound]
repellency rate (sycamore lace bug nymphs [2]; 2 min, 0.01 μg/μl): 25%^* | repellency rate (sycamore lace bug nymphs [2]; 2 min, 0.1 μg/μl): 50%^* | repellency rate (sycamore lace bug nymphs [2]; 2 min, 1 μg/μl): 72.41%^* | repellency rate (sycamore lace bug nymphs [2]; 4 min, 0.01 μg/μl): 25%^* | repellency rate (sycamore lace bug nymphs [2]; 4 min, 0.1 μg/μl): 57.14%^* | repellency rate (sycamore lace bug nymphs [2]; 4 min, 1 μg/μl): 79.41%^* | behavioral response of nymphs (sycamore lace bug nymphs [2]): significantly repelled | Chi-square value, choice of nymphs (sycamore lace bug nymphs [1]; 0.01 μg/μl): 5.444^a^* | Chi-square value, choice of nymphs (sycamore lace bug nymphs [1]; 0.1 μg/μl): 10.965^** | Chi-square value, choice of nymphs (sycamore lace bug nymphs [1]; 1 μg/μl): 13.928^** | behavioral response of nymphs (sycamore lace bug nymphs [1]): significantly repelled | Kd (CcilCSP2): 15.2 µM | Displacement of 1-NPN (CcilCSP2; competitive binding): more than 50% | χ2, choice of adults (sycamore lace bug adults; 0.1 μg/μl vs. hexane): 1.52 | χ2, choice of adults (sycamore lace bug adults; 1 μg/μl vs. hexane): 0.069 | behavioral response of adults (sycamore lace bug adults): not significantly affected | Chi-square value, choice of nymphs (sycamore lace bug nymphs [3]; 0.01 μg/μl): 0.214 | Chi-square value, choice of nymphs (sycamore lace bug nymphs [3]; 0.1 μg/μl): 0.267 | Chi-square value, choice of nymphs (sycamore lace bug nymphs [3]; 1 μg/μl): 0.083

O=C(Oc1ccccc1)c1ccccc1 [Phenyl benzoate]
repellency rate (sycamore lace bug nymphs [2]; 2 min, 0.01 μg/μl): 12% | repellency rate (sycamore lace bug nymphs [2]; 2 min, 0.1 μg/μl): 50%^* | repellency rate (sycamore lace bug nymphs [2]; 2 min, 1 μg/μl): 63.16%^* | repellency rate (sycamore lace bug nymphs [2]; 4 min, 0.01 μg/μl): 13% | repellency rate (sycamore lace bug nymphs [2]; 4 min, 0.1 μg/μl): 57.14%^* | repellency rate (sycamore lace bug nymphs [2]; 4 min, 1 μg/μl): 73.68%^* | behavioral response of nymphs (sycamore lace bug nymphs [2]): repellent effect of phenyl benzoate was further confirmed | Chi-square value, choice of nymphs (sycamore lace bug nymphs [1]; 0.01 μg/μl): 0.615 | Chi-square value, choice of nymphs (sycamore lace bug nymphs [1]; 0.1 μg/μl): 14.629^** | Chi-square value, choice of nymphs (sycamore lace bug nymphs [1]; 1 μg/μl): 5.818^* | behavioral response of nymphs (sycamore lace bug nymphs [1]): significantly repelled | Displacement of 1-NPN (CcilCSP2; competitive binding): more than 50% | Kd (CcilCSP2; competitive binding, 1-NPN as fluorescent reporter, calculated from IC50, read-out: KD): 13.9 µM | χ2, choice of adults (sycamore lace bug adults; 0.1 μg/μl vs. hexane): 0.083 | χ2, choice of adults (sycamore lace bug adults; 1 μg/μl vs. hexane): 0.176 | behavioral response of adults (sycamore lace bug adults): not significant

c1ccc2ccccc2c1 [Naphthalene]
Chi-square value, choice of nymphs (sycamore lace bug nymphs [1]; 0.01 μg/μl): 0.243 | Chi-square value, choice of nymphs (sycamore lace bug nymphs [1]; 0.1 μg/μl): 1.190 | Chi-square value, choice of nymphs (sycamore lace bug nymphs [1]; 1 μg/μl): 0.333

c1ccc(Nc2cccc3ccccc23)cc1 [1-NPN]
Kd (c18915_g1): Affinity of c18915_g1 for 1-NPN

— paper PMC5897531, “Identification of an Alarm Pheromone-Binding Chemosensory Protein From the Invasive Sycamore Lace Bug Corythucha ciliata (Say)” (Frontiers in Physiology, 2018)
